# From US20230066011A1, “PYRROLOPYRIMIDINE DERIVATIVE, AND PHARMACEUTICAL COMPOSITION FOR PREVENTING OR TREATING PROTEIN KINASE-RELATED DISEASE COMPRISING SAME AS ACTIVE INGREDIENT” (VORONOI CO., LTD., priority 2019, published 2023)
# Assays:
# Assay type in all cases: biochemical
# human GST-CLK1 = target: T1, human GST-CLK1 (Homo sapiens, UniProt P49759); assay: GST-CLK1 enzyme inhibition, ADP-Glo kinase assay; settings: ATP 10 μM, GST-CLK1 129-end
# T1 construct: purified human GST-CLK1 (129-end, SignalChem) enzyme; purchased SignalChem
# T1 sequence (P49759 129-484 limits assumed): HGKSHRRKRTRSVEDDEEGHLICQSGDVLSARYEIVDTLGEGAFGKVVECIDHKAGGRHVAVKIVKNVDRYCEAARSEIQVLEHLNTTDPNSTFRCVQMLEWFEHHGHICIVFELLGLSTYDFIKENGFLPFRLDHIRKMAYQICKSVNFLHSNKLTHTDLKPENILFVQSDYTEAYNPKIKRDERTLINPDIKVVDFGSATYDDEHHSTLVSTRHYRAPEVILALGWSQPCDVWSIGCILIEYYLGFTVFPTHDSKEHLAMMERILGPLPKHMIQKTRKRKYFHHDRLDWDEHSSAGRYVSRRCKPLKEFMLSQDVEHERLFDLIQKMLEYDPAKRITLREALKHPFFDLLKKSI
# In short: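 ADP-Glo luminescence read-out, relative to untreated solvent control, gave IC50 (nM) from triplicate data sets. Reactions ran an hour at 25° C with 3 ng GST-CLK1 (residues 129-end), 10 μM ATP and specific substrate in Tris-HCl pH 7.4 buffer with MgCl2, BSA and DTT.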
# LRRK2 (G2019S) = LRRK2 (G2019S) (Homo sapiens, UniProt Q5S007, G2019S); assay: LRRK2 G2019S enzyme inhibition, ADP-Glo kinase assay; design: purchased SignalChem L10-12GG; settings: ATP 25 μM
# Chain of LRRK2 (G2019S) (Q5S007 970-2527 G2019S limits assumed): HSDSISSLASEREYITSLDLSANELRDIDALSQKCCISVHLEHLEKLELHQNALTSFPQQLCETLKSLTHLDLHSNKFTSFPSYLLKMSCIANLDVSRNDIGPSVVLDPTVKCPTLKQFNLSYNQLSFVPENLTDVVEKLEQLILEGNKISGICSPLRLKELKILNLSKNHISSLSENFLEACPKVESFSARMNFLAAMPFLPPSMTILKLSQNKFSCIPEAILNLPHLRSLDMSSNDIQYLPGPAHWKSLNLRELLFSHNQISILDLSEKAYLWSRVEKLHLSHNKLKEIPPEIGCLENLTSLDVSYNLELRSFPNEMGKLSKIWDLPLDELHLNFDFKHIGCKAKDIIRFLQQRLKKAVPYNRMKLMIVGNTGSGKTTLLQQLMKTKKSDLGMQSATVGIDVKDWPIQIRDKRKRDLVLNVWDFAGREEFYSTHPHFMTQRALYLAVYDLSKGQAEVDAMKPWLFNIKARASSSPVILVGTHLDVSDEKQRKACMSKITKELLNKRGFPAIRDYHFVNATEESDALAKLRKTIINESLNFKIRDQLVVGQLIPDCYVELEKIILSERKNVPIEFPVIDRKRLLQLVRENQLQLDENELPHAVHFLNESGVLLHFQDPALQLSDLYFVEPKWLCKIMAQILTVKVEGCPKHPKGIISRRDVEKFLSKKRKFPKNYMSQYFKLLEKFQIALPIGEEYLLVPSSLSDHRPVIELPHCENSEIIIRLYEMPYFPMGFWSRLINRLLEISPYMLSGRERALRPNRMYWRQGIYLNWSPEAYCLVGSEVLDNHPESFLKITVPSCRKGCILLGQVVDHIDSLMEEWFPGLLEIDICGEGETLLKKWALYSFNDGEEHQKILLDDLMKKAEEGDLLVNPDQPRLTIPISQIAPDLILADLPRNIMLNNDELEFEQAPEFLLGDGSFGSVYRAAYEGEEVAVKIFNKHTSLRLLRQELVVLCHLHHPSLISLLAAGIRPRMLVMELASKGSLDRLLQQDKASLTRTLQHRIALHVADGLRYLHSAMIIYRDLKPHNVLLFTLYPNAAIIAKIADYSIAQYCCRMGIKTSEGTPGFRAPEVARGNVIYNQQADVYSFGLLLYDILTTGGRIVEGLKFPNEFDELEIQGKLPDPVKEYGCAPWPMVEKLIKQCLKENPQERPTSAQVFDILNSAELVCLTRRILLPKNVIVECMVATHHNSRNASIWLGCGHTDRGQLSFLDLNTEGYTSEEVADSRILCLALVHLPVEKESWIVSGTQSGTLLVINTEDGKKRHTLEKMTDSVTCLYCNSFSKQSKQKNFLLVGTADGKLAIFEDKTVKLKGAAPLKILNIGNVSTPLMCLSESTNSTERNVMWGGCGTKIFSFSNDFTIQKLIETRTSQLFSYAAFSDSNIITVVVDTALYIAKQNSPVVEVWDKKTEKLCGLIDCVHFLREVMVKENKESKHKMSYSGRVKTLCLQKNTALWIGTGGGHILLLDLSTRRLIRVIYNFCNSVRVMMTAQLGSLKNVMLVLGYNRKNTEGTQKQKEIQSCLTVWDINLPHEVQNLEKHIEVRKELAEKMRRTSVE
# In short: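 IC50 derived from luminescent ADP-Glo readout against untreated solvent control, twelve final compound concentrations from 50 μM downward. Reaction: recombinant human LRRK2 G2019S enzyme, 25 μM ATP, substrate, pH 7.4 Tris buffer with MgCl2/BSA/DTT, 25° C. for 2 hours.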
# human GST-DYRK1A = target: T2, human GST-DYRK1A (Homo sapiens, UniProt Q13627); assay: GST-DYRK1A enzyme inhibition, ADP-Glo kinase assay; settings: ATP 10 μM, GST-DYRK1A full length, read-out: DYRK1 IC50
# T2 construct: purified human GST-DYRK1A (full length, Thermo Scientifics) enzyme; purchased Thermo Scientifics
# In short: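 Full-length enzyme (10 ng) was incubated with 10 μM ATP and a specific substrate for 1 h at 25 °C in 40 mM Tris-HCl pH 7.4, 20 mM MgCl2, 0.5 mg/mL BSA, 50 μM DTT. Luminescence was read against a solvent control, and IC50 values were derived from 3 data sets.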
Compound,IC50 (human GST-CLK1),IC50 (LRRK2 (G2019S)),IC50 (human GST-DYRK1A)
"CNc1nc(Nc2ccc(S(=O)(=O)N3CCOCC3)cc2OC)nc2[nH]ccc12 [Example 2, N^2-(2-methoxy-4-(morpholinosulfonyl)phenyl)-N^4-methyl-7H-pyrrolo[2,3-d]pyrimidine-2,4-diamine 2,2,2-trifluoroacetate]",301 to 1000 nM,< 100 nM,301 to 1000 nM
"O=C(c1ccc(Nc2nc(NC3CC3)c3cc[nH]c3n2)c2c1OCCO2)N1CCOCC1 [Example 56, (8-((4-(cyclopropylamino)-7H-pyrrolo[2,3-d]pyrimidin-2-yl)amino)-2,3-dihydrobenzo[b][1,4]dioxin-5-yl)(morpholino)methanone]",301 to 1000 nM,< 100 nM,301 to 1000 nM
"O=C(c1ccc(Nc2nc(N[C@H]3CCOC3)c3c(C(F)(F)F)c[nH]c3n2)c2c1OCCO2)N1CCOCC1 [Example 209, (S)-morpholino(8-((4-((tetrahydrofuran-3-yl)amino)-5-(trifluoromethyl)-7H-pyrrolo[2,3-d]pyrimidin-2-yl)amino)-2,3-dihydrobenzo[b][1,4]dioxin-5-yl)methanone]",< 100 nM,< 100 nM,301 to 1000 nM
"CC[C@@H](C)Nc1nc(Nc2ccc(S(=O)(=O)N3CCOCC3)cc2OC)nc2[nH]ccc12 [Example 59, (R)-N^4-(sec-butyl)-N^2-(2-methoxy-4-(morpholinosulfonyl)phenyl)-7H-pyrrolo[2,3-d]pyrimidine-2,4-diamine]",301 to 1000 nM,< 100 nM,301 to 1000 nM
"COc1cc(S(C)(=O)=O)ccc1Nc1nc(NC2CCCCC2)c2cc[nH]c2n1 [Example 27, N^4-cyclohexyl-N^2-(2-methoxy-4-(methylsulfonyl)phenyl)-7H-pyrrolo[2,3-d]pyrimidine-2,4-diamine 2,2,2-trifluoroacetate]",301 to 1000 nM,< 100 nM,301 to 1000 nM
"COCCNc1nc(Nc2ccc(S(C)(=O)=O)cc2OC)nc2[nH]ccc12 [Example 21, N^2-(2-methoxy-4-(methylsulfonyl)phenyl)-N^4-(2-methoxyethyl)-7H-pyrrolo[2,3-d]pyrimidine-2,4-diamine 2,2,2-trifluoroacetate]",301 to 1000 nM,< 100 nM,301 to 1000 nM
"CCCCNc1nc(Nc2ccc(C(=O)N3CCOCC3)c3c2OCC3)nc2[nH]cc(C(F)(F)F)c12 [Example 465, (7-((4-(butylamino)-5-(trifluoromethyl)-7H-pyrrolo[2,3-d]pyrimidin-2-yl)amino)-2,3-dihydrobenzo-furan-4-yl) (morpholino) methanone]",301 to 1000 nM,< 100 nM,301 to 1000 nM
"CCNc1nc(Nc2ccc(P3(=O)CCN(C4CC4)CC3)cc2OC)nc2[nH]cc(C(F)(F)F)c12 [Example 398, 1-cyclopropyl-4-(4-((4-(ethylamino)-5-(trifluoromethyl)-7H-pyrrolo[2,3-d]pyrimidin-2-yl)amino)-3-methoxyphenyl)-1,4-azaphosphinane 4-oxide]",< 100 nM,< 100 nM,101 to 300 nM
"COc1cc(S(C)(=O)=O)ccc1Nc1nc(NC2CCCC2)c2cc[nH]c2n1 [Example 1, N^4-cyclopentyl-N^2-(2-methoxy-4-(methylsulfonyl)phenyl)-7H-pyrrolo[2,3-d]pyrimidine-2,4-diamine]",301 to 1000 nM,< 100 nM,301 to 1000 nM
"CCNc1nc(Nc2ccc(S(=O)(=O)N3CCC(N4CCOCC4)CC3)cc2OC)nc2[nH]ccc12 [Example 6, N^4-ethyl-N^2-(2-methoxy-4-((4-morpholinopiperidin-1-yl)sulfonyl)phenyl)-7H-pyrrolo[2,3-d]pyrimidine-2,4-diamine 2,2,2-trifluoroacetate]",301 to 1000 nM,< 100 nM,301 to 1000 nM
"CC[C@H](C)Nc1nc(Nc2ccc(P(C)(C)=O)cc2OC)nc2[nH]cc(C(F)(F)F)c12 [Example 385, (S)-(4-((4-(sec-butylamino)-5-(trifluoromethyl)-7H-pyrrolo[2,3-d]pyrimidin-2-yl)amino)-3-methoxyphenyl) dimethyl-phosphine oxide]",301 to 1000 nM,< 100 nM,301 to 1000 nM
"CCCCNc1nc(Nc2ccc(P(C)(C)=O)cc2OC)nc2[nH]cc(C(F)(F)F)c12 [Example 393, (4-((4-(butylamino)-5-(trifluoromethyl)-7H-pyrrolo[2,3-d]pyrimidin-2-yl)amino)-3-methoxyphenyl) dimethyl-phosphine oxide]",301 to 1000 nM,< 100 nM,301 to 1000 nM
"COc1cc(P2(=O)CCN(C3COC3)CC2)ccc1Nc1nc(NC2CCC2)c2c(C#N)c[nH]c2n1 [Example 288, 4-(cyclo-butylamino)-2-((2-methoxy-4-(1-(oxetan-3-yl)-4-oxido-1,4-azaphosphinan-4-yl)phenyl)amino)-7H-pyrrolo[2,3-d]pyrimidine-5-carbonitrile]",< 100 nM,< 100 nM,< 100 nM
"COc1cc(P2(=O)CCN(C3CC3)CC2)ccc1Nc1nc(NC2CCOCC2)c2c(C(F)(F)F)c[nH]c2n1 [Example 419, 1-cyclopropyl-4-(3-methoxy-4-((4-((tetrahydro-2H-pyran-4-yl)amino)-5-(trifluoro)-7H-pyrrolo[2,3-d]pyrimidin-2-yl)amino)phenyl)-1,4-azaphosphinane 4-oxide]",< 100 nM,< 100 nM,301 to 1000 nM
"COc1cc(S(=O)(=O)N2CCOCC2)ccc1Nc1nc(NCC2CCC2)c2cc[nH]c2n1 [Example 37, N^4-(cyclobutylmethyl)-N^2-(2-methoxy-4-(morpholinosulfonyl)phenyl)-7H-pyrrolo[2,3-d]pyrimidine-2,4-diamine]",301 to 1000 nM,< 100 nM,301 to 1000 nM
"O=C(c1ccc(Nc2nc(NC3CCCC3)c3cc[nH]c3n2)c2c1OCCO2)N1CCOCC1 [Example 48, (8-((4-(cyclopentylamino)-7H-pyrrolo[2,3-d]pyrimidin-2-yl)amino)-2,3-dihydrobenzo[b][1,4]dioxin-5-yl)(morpholino)methanone]",301 to 1000 nM,< 100 nM,301 to 1000 nM
"COc1cc(S(=O)(=O)N2CCOCC2)ccc1Nc1nc(NCC2CCCC2)c2cc[nH]c2n1 [Example 40, N^4-(cyclopentylmethyl)-N^2-(2-methoxy-4-(morpholinosulfonyl)phenyl)-7H-pyrrolo[2,3-d]pyrimidine-2,4-diamine 2,2,2-trifluoroacetate]",301 to 1000 nM,301 to 1000 nM,301 to 1000 nM
"CCCCNc1nc(Nc2ccc(C(=O)N3CCN(C4COC4)CC3)c3c2OCCO3)nc2[nH]cc(C(F)(F)F)c12 [Example 429, (8-((4-(butylamino)-5-(trifluoromethyl)-7H-pyrrolo[2,3-d]pyrimidin-2-yl)amino)-2,3-dihydrobenzo[b] [1,4]dioxin-5-yl) (4-(oxetan-3-yl)piperazin-1-yl)methanone]",< 100 nM,< 100 nM,< 100 nM
"CC(C)CNc1nc(Nc2ccc(C(=O)N3CCOCC3)c3c2OCCO3)nc2[nH]cc(C#N)c12 [Example 121, 4-(isobutylamino)-2-((8-(morpholine-4-carbonyl)-2,3-dihydrobenzo[b][1,4]dioxin-5-yl)amino)-7H-pyrrolo[2,3-d]pyrimidine-5-carbonitrile]",101 to 300 nM,< 100 nM,301 to 1000 nM
"COc1cc(S(=O)(=O)N2CCC(N3CCOCC3)CC2)ccc1Nc1nc(NCC2CCC2)c2cc[nH]c2n1 [Example 38, N^4-(cyclobutylmethyl)-N^2-(2-methoxy-4-((4-morpholinopiperidin-1-yl)sulfonyl)phenyl)-7H-pyrrolo[2,3-d]pyrimidine-2,4-diamine 2,2,2-trifluoroacetate]",301 to 1000 nM,< 100 nM,301 to 1000 nM
"COc1cc(S(=O)(=O)N2CCOCC2)ccc1Nc1nc(NC2CCOCC2)c2c(C#N)c[nH]c2n1 [Example 76, 2-((2-methoxy-4-(morpholinosulfonyl)phenyl)amino)-4-((tetrahydro-2H-pyran-4-yl)amino)-7H-pyrrolo[2,3-d]pyrimidine-5-carbonitrile]",301 to 1000 nM,< 100 nM,301 to 1000 nM
"O=C(c1ccc(Nc2nc(NCC3CCCC3)c3c(C(F)(F)F)c[nH]c3n2)c2c1CCO2)N1CCOCC1 [Example 463, (7-((4-((cyclo-pentylmeth-yl)amino)-5-(trifluoromethyl)-7H-pyrrolo[2,3-d]pyrimidin-2-yl)amino)-2,3-dihydrobenzo-furan-4-yl) (morpholino) methanone]",301 to 1000 nM,301 to 1000 nM,301 to 1000 nM
"COc1cc(S(C)(=O)=O)ccc1Nc1nc(NC(C)C)c2cc[nH]c2n1 [Example 14, N^4-isopropyl-N^2-(2-methoxy-4-(methylsulfonyl)phenyl)-7H-pyrrolo[2,3-d]pyrimidine-2,4-diamine 2,2,2-trifluoroacetate]",301 to 1000 nM,< 100 nM,301 to 1000 nM
